The experiment addresses GST-hRIPK1 (8-327) (Homo sapiens (Human), UniProt Q13546). Nature of the experiment: Fluorescent Polarization Binding (FP Binding) assay, RIPK1. The conditions noted are these: mean of at least two independent experiments. In short, it runs like this:
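Binding by fluorescence polarisation at RT: 10 nM baculovirus-expressed GST-hRIPK1 (8-327) and 5 nM fluorescent ligand, 30 min, in 50 mM HEPES pH 7.5, 50 mM MgCl2, 0.02% CHAPS, 1% DMSO. FP read at ex 531/em 595 nm. IC50 from normalised percent inhibition, mean of ≥2 experiments.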

Where [1] appears, read: 10 nM GST-hRIPK1 (8-327), 5 nM fluorescent-labeled ligand, RT, 30 min.

Results on 33 compounds are retold here after patent US11203600B2 (Denali Therapeutics Inc., priority 2017, dated 2021).

The term IC50 denotes the concentration at which inhibition is half-maximal. Low values mean inhibition by little substance, high ones a need for much substance.

The structures appear in SMILES notation. Some results are limits rather than exact numbers.

GST-hRIPK1 (8-327), sequence (Q13546 8-327): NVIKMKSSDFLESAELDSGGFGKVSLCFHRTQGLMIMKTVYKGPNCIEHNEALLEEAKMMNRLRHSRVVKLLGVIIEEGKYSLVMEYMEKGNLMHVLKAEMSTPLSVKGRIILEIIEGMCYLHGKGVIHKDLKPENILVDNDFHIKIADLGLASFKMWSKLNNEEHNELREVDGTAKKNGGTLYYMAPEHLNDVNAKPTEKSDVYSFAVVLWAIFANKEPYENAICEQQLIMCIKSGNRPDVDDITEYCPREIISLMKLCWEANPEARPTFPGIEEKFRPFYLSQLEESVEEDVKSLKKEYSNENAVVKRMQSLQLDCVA

As for `CC(C)(C(=O)N1CCOc2ncccc2C1)C(F)F` [Example 34, 1-(2,3-dihydropyrido[3,2-f][1,4]oxazepin-4(5H)-yl)-3,3-difluoro-2,2-dimethylpropan-1-one], the IC50 under setting [1] is above 1 µM.

Under “GST-hRIPK1 (8-327)”, `N#Cc1cncc2c1OCCN(C(=O)C1(F)CCN(c3ccc4c(n3)CNC4)CC1)C2` [Example 286, 4-[1-(6,7-dihydro-5H-pyrrolo[3,4-b]pyridin-2-yl)-4-fluoro-piperidine-4-carbonyl]-3,5-dihydro-2H-pyrido[3,4-f][1,4]oxazepine-9-carbonitrile] came in with an IC50 above 1 µM.

Under setting [1], `CCC(C)(C)C(=O)N1CCOc2ccc(F)cc2C1` [Example 32, 1-(7-fluoro-2,3,4,5-tetrahydro-1,4-benzoxazepin-4-yl)-2,2-dimethylbutan-1-one] registered an IC50 of 0.0001 to 0.1 µM.

For the compound `CC(C)(C(=O)N1CCOc2c(C#N)cncc2C1)C1CCN(c2ncc(F)cn2)C1` (single isomer, unassigned) [Example 281, 4-[2-(-1-(5-Fluoropyrimidin-2-yl)pyrrolidin-3-yl)-2-methyl-propanoyl]-3,5-dihydro-2H-pyrido[3,4-f][1,4]oxazepine-9-carbonitrile], the IC50 (GST-hRIPK1 (8-327)) was in the range of 0.0001 to 0.1 µM.

Turning to `COc1nc(N2CCC(C(=O)N3CCOc4c(C#N)cncc4C3)CC2)c(F)cc1F` [Example 287, 4-[1-(3,5-difluoro-6-methoxy-2-pyridyl)piperidine-4-carbonyl]-3,5-dihydro-2H-pyrido[3,4-f][1,4]oxazepine-9-carbonitrile], the IC50 (GST-hRIPK1 (8-327)) is 0.0001 to 0.1 µM.

As to `N#Cc1cncc2c1OCCN(C(=O)C1(F)CCN(c3ncc(C4CC4)cn3)CC1)C2` [Example 100, 4-[1-(5-cyclopropylpyrimidin-2-yl)-4-fluoro-piperidine-4-carbonyl]-3,5-dihydro-2H-pyrido[3,4-f][1,4]oxazepine-9-carbonitrile], under setting [1], the IC50 fell in the range of 0.1 to 1 µM.

`N#Cc1cncc2c1OCCN(C(=O)C1(F)CCN(c3nc(Cl)ncc3F)CC1)C2` [Example 202, 4-[1-(2-chloro-5-fluoro-pyrimidin-4-yl)-4-fluoro-piperidine-4-carbonyl]-3,5-dihydro-2H-pyrido[3,4-f][1,4]oxazepine-9-carbonitrile] had an IC50 (GST-hRIPK1 (8-327)) of 0.0001 to 0.1 µM.

Under setting [1], `CC(C)(CC1CC1)C(=O)N1CCOc2c(C#N)cncc2C1` [Example 58, 4-(3-cyclopropyl-2,2-dimethyl-propanoyl)-3,5-dihydro-2H-pyrido[3,4-f][1,4]oxazepine-9-carbonitrile] had an IC50 of 0.1 to 1 µM.

Under setting [1], `N#Cc1cncc2c1OCCN(C(=O)C1(F)CCN(c3ccnc4ccnn34)CC1)C2` [Example 110, 4-(4-fluoro-1-(pyrazolo[1,5-a]pyrimidin-7-yl)piperidine-4-carbonyl)-2,3,4,5-tetrahydropyrido[3,4-f][1,4]oxazepine-9-carbonitrile] displayed a concentration for half-maximal inhibition (IC50) of 0.0001 to 0.1 µM.

In turn, `N#Cc1cncc2c1OCCN(C(=O)C1CCN(c3nccc(OCC(F)F)n3)CC1)C2` [Example 133, 4-[1-[4-(2,2-difluoroethoxy)pyrimidin-2-yl]piperidine-4-carbonyl]-3,5-dihydro-2H-pyrido[3,4-f][1,4]oxazepine-9-carbonitrile] displayed an IC50 under setting [1] of 0.1 to 1 µM.

Compound `COc1nc(N2CCC(OC)(C(=O)N3CCOc4c(C#N)cncc4C3)CC2)nc(C)c1F` [Example 195, 4-[1-(5-fluoro-4-methoxy-6-methyl-pyrimidin-2-yl)-4-methoxy-piperidine-4-carbonyl]-3,5-dihydro-2H-pyrido[3,4-f][1,4]oxazepine-9-carbonitrile] gave an IC50 under setting [1] above 1 µM.

Turning to `COc1nc(N2CCC(F)(C(=O)N3CCOc4c(C#N)cncc4C3)CC2)nc(C)c1F` [Example 196, 4-[4-fluoro-1-(5-fluoro-4-methoxy-6-methyl-pyrimidin-2-yl)piperidine-4-carbonyl]-3,5-dihydro-2H-pyrido[3,4-f][1,4]oxazepine-9-carbonitrile], the IC50 under setting [1] was in the range of 0.1 to 1 µM.

For the setting “GST-hRIPK1 (8-327)”, `CC1(C(=O)N2CCOc3c(C#N)cncc3C2)CCCCO1` (stereo not drawn) [Example 240, 4-(2-methyltetrahydropyran-2-carbonyl)-3,5-dihydro-2H-pyrido[3,4-f][1,4]oxazepine-9-carbonitrile] registered a concentration for half-maximal inhibition (IC50) of 0.1 to 1 µM.

`CC1(C(=O)N2CCOc3c(C#N)cncc3C2)CCN(c2ncc(F)cn2)CC1(F)F` (stereo not drawn) [Example 96, 4-[3,3-difluoro-1-(5-fluoropyrimidin-2-yl)-4-methyl-piperidine-4-carbonyl]-3,5-dihydro-2H-pyrido[3,4-f][1,4]oxazepine-9-carbonitrile]: the IC50 under setting [1] was in the range of 0.0001 to 0.1 µM.

`COC1(C(=O)N2CCOc3c(C#N)cncc3C2)CCN(c2ccc(F)cn2)CC1` [Example 190, 4-[1-(5-fluoro-2-pyridyl)-4-methoxy-piperidine-4-carbonyl]-3,5-dihydro-2H-pyrido[3,4-f][1,4]oxazepine-9-carbonitrile] registered an IC50 under setting [1] of 0.1 to 1 µM.

Under setting [1], `N#Cc1ccnc(N2CCC(F)(C(=O)N3CCOc4c(F)cncc4C3)CC2)n1` [Example 160, 2-[4-fluoro-4-(9-fluoro-3,5-dihydro-2H-pyrido[3,4-f][1,4]oxazepine-4-carbonyl)-1-piperidyl]pyrimidine-4-carbonitrile] had an IC50 of 0.1 to 1 µM.

Under setting [1], `CC(C)(CC(F)F)C(=O)N1CCOc2c(C#N)cncc2C1` [Example 149, 4-(4,4-difluoro-2,2-dimethyl-butanoyl)-3,5-dihydro-2H-pyrido[3,4-f][1,4]oxazepine-9-carbonitrile] returned a half-inhibitory concentration (IC50) of 0.1 to 1 µM.

Under setting [1], `CC1CN(c2ncc(F)cn2)CCC1C(=O)N1CCOc2c(C#N)cncc2C1` (stereo not drawn) [Example 187, 4-[1-(5-fluoropyrimidin-2-yl)-3-methyl-piperidine-4-carbonyl]-3,5-dihydro-2H-pyrido[3,4-f][1,4]oxazepine-9-carbonitrile] yielded an IC50 of 0.0001 to 0.1 µM.

Under setting [1], `N#Cc1cncc2c1OCCN(C(=O)C1(F)CCN(c3cnccn3)CC1)C2` [Example 87, 4-(4-fluoro-1-pyrazin-2-yl-piperidine-4-carbonyl)-3,5-dihydro-2H-pyrido[3,4-f][1,4]oxazepine-9-carbonitrile] displayed an IC50 of 0.1 to 1 µM.

`COc1nc(N2CCC(C(=O)N3CCOc4c(F)cncc4C3)CC2)ncc1F` [Example 236] displayed an IC50 (GST-hRIPK1 (8-327)) of 0.0001 to 0.1 µM.

For the setting “GST-hRIPK1 (8-327)”, `COc1cc(C(F)(F)F)nc(N2CCC(F)(C(=O)N3CCOc4c(C#N)cncc4C3)CC2)n1` [Example 232, 4-[4-fluoro-1-[4-methoxy-6-(trifluoromethyl)pyrimidin-2-yl]piperidine-4-carbonyl]-3,5-dihydro-2H-pyrido[3,4-f][1,4]oxazepine-9-carbonitrile] registered an IC50 of 0.1 to 1 µM.

`COc1nc(N2CCC(F)(C(=O)N3CCOc4c(C#N)cncc4C3)CC2)ncc1F` [Example 191, 4-[4-fluoro-1-(5-fluoro-4-methoxy-pyrimidin-2-yl)piperidine-4-carbonyl]-3,5-dihydro-2H-pyrido[3,4-f][1,4]oxazepine-9-carbonitrile] gave an IC50 under setting [1] of 0.0001 to 0.1 µM.

In the case of `N#Cc1cncc2c1OCCN(C(=O)C1(F)CCN(c3nccn4ccnc34)CC1)C2` [Example 106, 4-(4-fluoro-1-imidazo[1,2-a]pyrazin-8-yl-piperidine-4-carbonyl)-3,5-dihydro-2H-pyrido[3,4-f][1,4]oxazepine-9-carbonitrile], the IC50 under setting [1] lay in the range of 0.1 to 1 µM.

The compound `CC(C)(C(=O)N1CCOc2c(F)cccc2C1)C(F)F` [Example 13, 3,3-difluoro-1-(9-fluoro-2,3-dihydrobenzo[f][1,4]oxazepin-4(5H)-yl)-2,2-dimethylpropan-1-one] displayed an IC50 under setting [1] of 0.0001 to 0.1 µM.

Under “GST-hRIPK1 (8-327)”, `CC(CF)(C(=O)N1CCOc2c(C#N)cncc2C1)C(F)F` (stereo not drawn) [Example 266, 4-[3,3-Difluoro-2-(fluoromethyl)-2-methyl-propanoyl]-3,5-dihydro-2H-pyrido[3,4-f][1,4]oxazepine-9-carbonitrile] showed an IC50 of 0.1 to 1 µM.

`N#Cc1cncc2c1OCCN(C(=O)C1(F)CCN(c3ncc(C(F)(F)F)cn3)CC1)C2` [Example 170, 4-[4-fluoro-1-[5-(trifluoromethyl)pyrimidin-2-yl]piperidine-4-carbonyl]-3,5-dihydro-2H-pyrido[3,4-f][1,4]oxazepine-9-carbonitrile]: the IC50 under setting [1] lay in the range of 0.1 to 1 µM.

Consider `N#Cc1cncc2c1OCCN(C(=O)C1(F)CCN(c3ncc(Cl)cn3)CC1)C2` [Example 164, 4-[1-(5-chloropyrimidin-2-yl)-4-fluoro-piperidine-4-carbonyl]-3,5-dihydro-2H-pyrido[3,4-f][1,4]oxazepine-9-carbonitrile], for which the IC50 under setting [1] lay within 0.0001 to 0.1 µM.

For the compound `N#Cc1cncc2c1OCCN(C(=O)C1(F)CCN(c3ncc(C(F)F)cn3)CC1)C2` [Example 189, 4-[1-[5-(difluoromethyl)pyrimidin-2-yl]-4-fluoro-piperidine-4-carbonyl]-3,5-dihydro-2H-pyrido[3,4-f][1,4]oxazepine-9-carbonitrile], the IC50 under setting [1] lay within 0.1 to 1 µM.

With `CC(C)(C(=O)N1CCOc2c(C#N)cncc2C1)C1CC1C(F)F` (stereo not drawn) [Example 82, 4-[2-(-2-(difluoromethyl)cyclopropyl)-2-methyl-propanoyl]-3,5-dihydro-2H-pyrido[3,4-f][1,4]oxazepine-9-carbonitrile], the IC50 under setting [1] fell in the range of 0.1 to 1 µM.

For the compound `CC(C)(C(=O)N1CCCc2ccccc2C1)C(F)F` [Example 5, 3,3-difluoro-2,2-dimethyl-1-(1,3,4,5-tetrahydro-2-benzazepin-2-yl)propan-1-one], the IC50 under setting [1] lay within 0.1 to 1 µM.

Compound `C[C@@H]1COc2c(C#N)cncc2CN1C(=O)C(C)(C)C(F)F` [Example 52, (3R)-4-(3,3-difluoro-2,2-dimethyl-propanoyl)-3-methyl-3,5-dihydro-2H-pyrido[3,4-f][1,4]oxazepine-9-carbonitrile] yielded an IC50 under setting [1] of 0.0001 to 0.1 µM.

Under setting [1], `CC(C)C(C)(C)C(=O)N1CCOc2c(C#N)cncc2C1` [Example 145, 4-(2,2,3-trimethylbutanoyl)-3,5-dihydro-2H-pyrido[3,4-f][1,4]oxazepine-9-carbonitrile] gave an IC50 of 0.0001 to 0.1 µM.

In turn, `CC(C)(C(=O)N1CCOc2c(C#N)cncc2C1)C1(O)CC1` [Example 81, 4-(2-(1-hydroxycyclopropyl)-2-methylpropanoyl)-2,3,4,5-tetrahydropyrido[3,4-f][1,4]oxazepine-9-carbonitrile] came in with a 50% inhibitory concentration (IC50) under setting [1] above 1 µM.
